Results from patent publication US4888329A, “Antiulcer composition” (Senju Pharmaceutical Co., Ltd., priority 1987, dated 1989).

Key:
Toxicity in rat (LD50) = conditions: in vivo
Excerpt: For instance, the toxicity in rat of disodium salt of phosphoric acid diester of L-ascorbic acid and DL-α-tocopherol was observed as follows: […]

rat stress ulcer [1] = assay: Effect on rat stress ulcer, intraperitoneal (Experimental Example 4); format: in vivo, male Wistar rats; conditions: for Length of ulcer: mean ± S.E., 7 h water immersion at 23° C., control 31.7 ± 3.64; for % Inhibition: length of ulcer vs control
Protocol: The test drugs were administered intraperitoneally to male Wistar rats weighing about 130-190 g and after 30 minutes, the four limbs of each rat were fixed to a board with tying thread. The rats were then immersed in water at 23° C. for 7 hours for stress loading. Ten minutes before water immersion, 3 ml/kg of 5% Pontamine Sky Blue was intravenously injected. After 7-hour water immersion, the rats were removed from the water and stomach was excised and fixed in 1% aqueous formaldehyde. Then length of gastric ulcer induced was measured.
(§1) *physiological saline, 5 ml/kg
In the above table, each value in the column corresponding to length of ulcer is the mean ± S.E. and the figure in the parentheses denotes the number of cases.

[2] = tested on: indomethacin-induced ulcer; assay: Effect on indomethacin-induced ulcer (Experimental Example 3); format: in vivo, male Donryu rats; conditions: disodium salt; for Length of ulcer: 30 min before indomethacin, mean ± S.E., 7 h after indomethacin, control 30.8 ± 5.97; for % Inhibition: length of ulcer vs control
Protocol: Male Donryu rats weighing 180-200 g were fasted for 24 hours and, then, a suspension of indomethacin in 1% carboxymethylcellulose (30 mg/[…]) was subcutaneously injected. The test drug was orally administered 30 minutes before indomethacin loading. Ten minutes before sacrifice at 7 hours after indomethacin loading, 3 ml/kg 5% Pontamine Sky Blue was intravenously injected. After sacrifice, the stomach was excised and fixed in 1% aqueous formaldehyde. Then, the length (mm) of the gastric ulcer induced was measured.
*5% gum arabic solution, 5 ml/kg
In the above table, each value in the column corresponding to the length of ulcer is the mean ± S.E. and the figure in parentheses denotes the number of cases.

rat stress ulcer [3] = assay: Effect on rat stress ulcer, oral (Experimental Example 1); format: in vivo, male Wistar rats; conditions: disodium salt; for Length of ulcer: mean ± S.E., 5 h water immersion at 23° C., control 25.5 ± 4.29; for % Inhibition: length of ulcer vs control, 5 h water immersion
Protocol: The test drug was administered orally to male Wistar rats weighing 230-270 g and after 30 minutes, the four limbs of each rat were fixed to a board with tying thread. The rats were then immersed in water at 23° C. for 5 hours for stress loading. Ten minutes before water immersion, 3 ml/kg of 5% Pontamine Sky Blue was intravenously injected. After this 5-hour water immersion, the rats were removed from the water and the stomach was excised and fixed in 1% aqueous formaldehyde. Then, the length of the gastric ulcer induced was measured.
*Control: 5% gum arabic solution, 5 ml/kg
In the above table, each value in the column corresponding to length of ulcer is the mean ± S.E. (standard error) and the figure in parentheses denotes the number of the cases.

rat stress ulcer [4] = assay: Effect on rat stress ulcer, intraperitoneal (Experimental Example 2); format: in vivo, male Wistar rats; conditions: 10 mg/5ml/kg intraperitoneal, disodium salt
Protocol: The test drug was aministered intraperitoneally to male Wistar rats weighing about 150 g. After 30 minutes, each rat was fixed to a board with tying thread and immersed in water at 23° C. for 7 hours for stress loading. Ten minutes before water immersion, 3 ml/kg of 5% Pontamine Sky Blue was intravenously administered.
After this 7-hour water immersion, the rats were removed from the water and the stomach was excised and fixed in 1% aqueous formaldehyde. Then, the length (mm) of the gastric ulcer induced was measured.
as §1
In the above table, each value in the column corresponding to the length of ulcer is the mean ± S.E. and the figure in the parentheses denotes the number of cases.

For `Cc1c(C)c2c(c(C)c1OP(=O)(O)OC1=C(O)[C@@H]([C@@H](O)CO)OC1=O)CCC(C)(CCCC(C)CCCC(C)CCCC(C)C)O2` (mixture of isomers) [α-EPC, phosphoric acid diester of L-ascorbic acid and DL-α-tocopherol], the LD50 (Toxicity in rat (LD50); po, per os) was over 10000 mg/kg, the LD50 (Toxicity in rat (LD50); sc, subcutaneous administration) was 793 mg/kg and the Length of ulcer (rat stress ulcer [1]; 10 mg/5 ml/kg intraperitoneal, disodium salt, n=10) was 8.5 ± 4.06 mm. For the same molecule, the Length of ulcer (rat stress ulcer [1]; 30 mg/5 ml/kg intraperitoneal, disodium salt, n=5) was 2.8 ± 1.27 mm, the “% Inhibition” value (rat stress ulcer [1]; 10 mg/5 ml/kg intraperitoneal, disodium salt) was 73.2% and the “% Inhibition” value (rat stress ulcer [1]; 30 mg/5 ml/kg intraperitoneal, disodium salt) was 91.2%. The Length of ulcer ([2]; 300 mg/5 ml/kg oral, n=8) was 20.4 ± 3.72 mm, the Length of ulcer ([2]; 1000 mg/5 ml/kg oral, n=9) was 3.5 ± 1.54 mm and the “% Inhibition” value ([2]; 300 mg/5 ml/kg oral) was 33.8%. For the same molecule, the “% Inhibition” value ([2]; 1000 mg/5 ml/kg oral) was 88.6%, the Length of ulcer (rat stress ulcer [3]; 100 mg/5ml/kg oral, n=5) was 19.4 ± 6.91 mm and the Length of ulcer (rat stress ulcer [3]; 1000 mg/5ml/kg oral, n=6) was 10.3 ± 3.51 mm. For the same molecule, the “% Inhibition” value (rat stress ulcer [3]; 100 mg/5ml/kg oral) was 23.9%, the “% Inhibition” value (rat stress ulcer [3]; 1000 mg/5ml/kg oral) was 59.6% and the Length of ulcer (rat stress ulcer [4]; mean ± S.E., n=6, 7 h water immersion at 23° C., control 34.3 ± 4.76) was 7.7 ± 6.00 mm. For the same molecule, the “% Inhibition” value (rat stress ulcer [4]; length of ulcer vs control, 7 h water immersion) was 77.6%.

For `CN/C(=N/CCSCc1nc[nH]c1C)NC#N` [Cimetidine, reference compound], the Length of ulcer (rat stress ulcer [1]; 200 mg/5 ml/kg intraperitoneal, n=5) was 7.4 ± 7.16 mm and the “% Inhibition” value (rat stress ulcer [1]; 200 mg/5 ml/kg intraperitoneal) was 76.7%.
